Reference: patent US9833423B2 (KOREA RESEARCH INSTITUTE OF CHEMICAL TECHNOLOGY, priority 2011, dated 2017)
Converted amounts (≈) assume the structure as drawn.

Experiments:
[1] = in vitro; conditions: human

| Structure (SMILES) | melting point [°C] | CC50 ([1]; CC50) [µg/mL] | CC50 ([1]; Picorna-virus CC50) [µg/mL] |
| --- | --- | --- | --- |
| COc1cc(C(C)C)ccc1C1(NC(=O)C2CC2)C(=O)c2ccccc2C1=O [Example 56, N-(2-(4-Isopropyl-2-methoxyphenyl)-1,3-dioxo-2,3-dihydro-1H-inden-2-yl) cyclopropancarboxamide] | 145 to 147 | 87.8 (≈ 233 µM) | – |
| CC(=O)Oc1ccc(-c2ccccc2)cc1C1(OC(C)=O)C(=O)c2ccccc2C1=O [Example 10, 3-(2-Acetoxy-1,3-dioxo-2,3-dihydro-1H-inden-2-yl)biphenyl-4-yl acetate] | 196 to 198 | 7.85 | – |
| Cc1cc(C2(O)C(=O)c3ccccc3C2=O)cc(C)c1O [Example 26, 2-Hydroxy-2-(4-hydroxy-3,5-dimethyl-phenyl)-indan-1,3-dione] | 210 to 213 | > 100 | – |
| COc1ccc(OC(C)=O)c(C2(OC(C)=O)C(=O)c3ccccc3C2=O)c1 [Example 7, 2-(2-Acetoxy-1,3-dioxo-2,3-dihydro-1H-inden-2-yl)-4-methoxyphenyl acetate] | 184 to 186 | > 100 | – |
| CC(=O)Oc1cc(-c2ccccc2)ccc1C1(OC(C)=O)C(=O)c2ccccc2C1=O [Example 8, 4-(2-Acetoxy-1,3-dioxo-2,3-dihydro-1H-inden-2-yl)biphenyl-3-yl acetate] | 165 to 167 | 7.91 | – |
| CSc1ccc(C2(O)C(=O)c3ccccc3C2=O)cc1 [Example 58] | 153 to 155 | 47.8 (≈ 168 µM) | – |
| Cc1cc(NC(=O)C(C)C)c(C2(O)C(=O)c3ccccc3C2=O)cc1C [Example 90, N-(2-(2-Hydroxy-1,3-dioxo-2,3-dihydro-1H-inden-2-yl)-4,5-dimethylphenyl)isobutyramide] | – | – | 38.3 (≈ 109 µM) |
| COc1cc(C(C)C)ccc1C1(N=[N+]=[N-])C(=O)c2ccccc2C1=O [Example 52, 2-Azido-2-(4-isopropyl-2-methoxyphenyl)-2H-inden-1,3-dione] | 175 to 177 | 27.7 (≈ 82.5 µM) | – |
| CCN(CC)C(=O)Oc1cc(C(C)C)ccc1C1(O)C(=O)c2ccccc2C1=O [Example 34, 2-(2-Hydroxy-1,3-dioxo-2,3-dihydro-1H-inden-2-yl)-5-isopropylphenyl diethylcarbamate] | 103 to 106 | 46.2 (≈ 117 µM) | – |
| CCN(CC)C(=O)Oc1cc(C(C)C)ccc1C1(OC(=O)N(CC)CC)C(=O)c2ccccc2C1=O [Example 33, Diethyl-carbamic acid 2-(2-diethylcarbamoyloxy-1,3-dioxo-indan-2-yl)-5-isopropyl-phenyl ester] | 103 to 105 | > 100 | – |
| COc1cc(NC(=O)C(C)C)c(C2(O)C(=O)c3cccc(N)c3C2=O)cc1OC (stereo not shown) [Example 107, N-[2-(4-Amino-2-hydroxy-1,3-dioxo-indan-2-yl)-4,5-dimethoxy-phenyl]-isobutyramide] | – | – | > 100 |
| CCOC(=O)NC1(c2ccc(C(C)C)cc2OC)C(=O)c2ccccc2C1=O [Example 64, Ethyl 2-(4-isopropyl-2-methoxyphenyl)-1,3-dioxo-2,3-dihydro-1H-inden-2-ylcarbamate] | 149 to 150 | 87.8 (≈ 230 µM) | – |
| CC(=O)Oc1ccc(C)nc1C1(OC(C)=O)C(=O)c2ccccc2C1=O [Example 71, 2-(2-Acetoxy-1,3-dioxo-2,3-dihydro-1H-inden-2-yl)-6-methylpyridin-3-yl acetate] | – | > 100 | – |
| COc1cc(NC(=O)C(C)C)c(C2(O)C(=O)c3cc(OC)c(OC)cc3C2=O)cc1OC [Example 108, N-[2-(2-Hydroxy-5,6-dimethoxy-1,3-dioxo-indan-2-yl)-4,5-dimethoxy-phenyl]-isobutyramide] | – | – | > 100 |
| CC(=O)Nc1cc(C)c(C)cc1C1(O)C(=O)c2ccccc2C1=O [Example 86, N-(2-(2-Hydroxy-1,3-dioxo-2,3-dihydro-1H-inden-2-yl)-4,5-dimethylphenyl)acetamide] | – | – | 4.63 (≈ 14.3 µM) |
| CC(C)c1ccc(C2(OC(=O)C(C)(C)C)C(=O)c3ccccc3C2=O)c(OC(=O)C(C)(C)C)c1 [Example 29, 2-(1,3-Dioxo-2-(pivaloyloxy)-2,3-dihydro-1H-inden-2-yl)-5-isopropylphenyl pivalate] | 121 to 124 | > 100 | – |
| CONC(=O)NC1(c2ccc(C(C)C)cc2OC)C(=O)c2ccccc2C1=O [Example 63, 1-(2-(4-Isopropyl-2-methoxyphenyl)-1,3-dioxo-2,3-dihydro-1H-inden-2-yl)-3-methoxy urea] | 153 to 155 | > 117 | – |
| CC(=O)Oc1cc(C)cc(C2(OC(C)=O)C(=O)c3ccccc3C2=O)c1OC(C)=O [Example 18, Acetic acid 2-(2,3-diacetoxy-5-methyl-phenyl)-1,3-dioxo-indan-2-yl ester] | 192 to 194 | > 100 | – |
| CCC(C)(C)c1ccc(OC(C)=O)c(C2(OC(C)=O)C(=O)c3ccccc3C2=O)c1 [Example 17, 2-(2-Acetoxy-1,3-dioxo-2,3-dihydro-1H-inden-2-yl)-4-tert-pentylphenyl acetate] | 146 to 151 | 9.3 | – |
| COc1cc(C(C)C)ccc1C1(O)C(=O)c2cccc(N)c2C1=O (stereo not shown) [Example 41, 4-Amino-2-hydroxy-2-(4-isopropyl-2-methoxyphenyl)-2H-inden-1,3-dione] | 219 to 220 | – | – |
| COc1cc(C(C)C)ccc1C1(O)C(=O)c2c(N)ccc(NC(C)=O)c2C1=O (stereo not shown) [Example 44, N-(7-Amino-2-hydroxy-2-(4-isopropyl-2-methoxyphenyl)-1,3-dioxo-2,3-dihydro-1H-inden-4-yl)acetamide] | – | > 117 | – |
| CCc1ccc(C2(O)C(=O)c3ccccc3C2=O)c(NC(C)=O)c1 [Example 88, N-(5-Ethyl-2-(2-hydroxy-1,3-dioxo-2,3-dihydro-1H-inden-2-yl)phenyl)acetamide] | – | – | 4.49 (≈ 13.9 µM) |
| O=C1c2ccccc2C(=O)C1(O)c1cc2ncccc2cc1O [Example 75, 2-Hydroxy-2-(6-hydroxyquinolin-7-yl)-1H-inden-1, 3(2H)-dione] | – | > 100 | – |
| CCOC(=O)Oc1cc(C(C)C)ccc1C1(OC(=O)OCC)C(=O)c2cccnc2C1=O (stereo not shown) [Example 105, ethyl (6-(2-((ethoxycarbonyl)oxy)-4-isopropylphenyl)-5,7-dioxo-6,7-dihydro-5H-cyclopenta[b]pyridin-6-yl)carbonate] | – | – | > 100 |
| O=C1c2ccccc2C(=O)C1(O)c1ncc(Cl)cc1O [Example 73, 2-(5-Chloro-3-hydroxypyridin-2-yl)-2-hydroxy-1H-inden-1,3(2H)-dione] | – | > 100 | – |
| COc1cccc(C2C(=O)c3ccccc3C2=O)c1 [Example 104, 2-(3-Methoxyphenyl)-2H-inden-1,3-dione] | – | – | > 100 |
| CCCC(=O)Nc1cc(C)c(C)cc1C1(O)C(=O)c2ccccc2C1=O [Example 89, N-(2-(2-Hydroxy-1,3-dioxo-2,3-dihydro-1H-inden-2-yl)-4,5-dimethylphenyl)butyramide] | – | – | 10.7 (≈ 30.4 µM) |
| COc1cc(C(C)C)ccc1C1(N=[N+]=[N-])C(=O)c2cccc([N+](=O)[O-])c2C1=O (stereo not shown) [Example 40, 2-Azido-2-(4-isopropyl-2-methoxyphenyl)-4-nitro-2H-inden-1,3-dione] | – | 53.2 (≈ 140 µM) | – |
| COc1cc(C(C)C)ccc1C1(O)C(=O)c2cccc([N+](=O)[O-])c2C1=O (stereo not shown) [Example 38, 2-Hydroxy-2-(4-isopropyl-2-methoxyphenyl)-4-nitro-2H-inden-1,3-dione] | – | > 100 | – |
